Results published in patent US20230219906A1, “MACROCYCLIC-2-AMINO-3-FLUORO-BUT-3-ENAMIDES AS INHIBITORS OF MCL-1” (Janssen Pharmaceutica NV, priority 2020, published 2023).
Read-outs that look alike come from different tables or passages of the source.

Columns and labels:
[1] = tested on: MOLP-8 human multiple myeloma cell line; test: Caspase-Glo 3/7 apoptosis induction assay in MOLP-8 cells; format: cell-based; conditions: caspase-3/7 activity, 2 hours at 37° C., averaged over all runs on all batches, read-out: MOLP8 AC50
Excerpt: MCL-1 is a regulator of apoptosis and is highly over-expressed in tumor cells that escape cell death. The assay evaluates the cellular potency of small-molecule compounds targeting regulators of the apoptosis pathway, primarily MCL-1, Bfl-1, Bcl-2, and other proteins of the Bcl-2 family. Protein-protein inhibitors disrupting the interaction of anti-apoptotic regulators with BH3-domain proteins initiate apoptosis.
The Caspase-Glo® 3/7 Assay is a luminescent assay that measures caspase-3 and −7 activities in purified enzyme preparations or cultures of adherent or suspension cells. The assay provides a proluminescent caspase-3/7 substrate, which contains the tetrapeptide sequence DEVD. This substrate is cleaved to release aminoluciferin, a substrate of luciferase used in the production of light. Addition of the single Caspase-Glo® 3/7 Reagent in an “add-mix-measure” format results in cell lysis, followed by caspase cleavage of the substrate and generation of a “glow-type” luminescent signal.
This assay uses the MOLP-8 human multiple myeloma cell line, which is sensitive to MCL-1 inhibition.
Cell cultures were maintained between 0.2 and 2.0×10^6 cells/mL. The cells were harvested by collection in 50 mL conical tubes. The cells were then pelleted at 500 g for 5 mins before removing supernatant and resuspension in fresh pre-warmed culture medium. The cells were counted and diluted as needed.
The assay reagent was prepared by transferring the buffer solution to the substrate vial and mixing. The solution may be stored for up to 1 week at 4° C. with negligible loss of signal.
Compounds were delivered in assay-ready plates (Proxiplate) and stored at −20° C. Assays always include 1 reference compound plate containing reference compounds. The plates were spotted with 40 nL of compounds (0.5% DMSO final in cells; serial dilution; […] highest conc. 1/3 dilution, 10 doses, duplicates). The compounds were used at room temperature and 4 μL of pre-warmed media was added to all wells except column 2 and 23. The negative control was prepared by adding 1% DMSO in media. The positive control was prepared by adding the appropriate positive control compound in final concentration of […] in media. The plate was prepared by adding 4 μL negative control to column 23, 4 μL positive control to column 2 and 4 μL cell suspension to all wells in the plate. The plate with cells was then incubated at 37° C. for 2 hours. The assay signal reagent is the Caspase-Glo solution described above, and 8 μL was added to all wells. The plates were then sealed and measured after 30 minutes.
The activity of a test compound was calculated as percent change in apoptosis induction as follows:
% Effect (AC50)=100−(sample-LC)/(HC-LC)*100
% Control=(sample/HC)*100
% Control min=(sample-LC)/(HC-LC)*100

[2] = biological target: Myeloid Cell Leukemia 1(Mcl-1) (Homo sapiens, UniProt Q07820); test: Terbium labeled Mcl-1 HTRF binding assay with Cy5-labeled BIM BH3 peptide; conditions: displacement of Cy5 Bim BH3 peptide; Ki=IC50/(1+[L]/Kd), [L]=8 nM, Kd=10 nM; 60 minutes at room temperature; read-out: Tb-MCL1 Ki
Myeloid Cell Leukemia 1(Mcl-1), sequence (Q07820 whole entry): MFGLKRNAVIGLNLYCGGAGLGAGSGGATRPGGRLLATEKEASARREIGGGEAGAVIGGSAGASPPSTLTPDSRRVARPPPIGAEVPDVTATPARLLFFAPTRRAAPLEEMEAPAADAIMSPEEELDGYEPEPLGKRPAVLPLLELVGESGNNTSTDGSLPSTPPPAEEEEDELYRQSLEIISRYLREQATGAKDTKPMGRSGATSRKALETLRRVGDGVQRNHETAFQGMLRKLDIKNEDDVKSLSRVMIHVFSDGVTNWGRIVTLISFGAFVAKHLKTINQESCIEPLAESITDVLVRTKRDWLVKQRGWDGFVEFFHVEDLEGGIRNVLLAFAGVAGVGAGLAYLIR
Experimental: Terbium labeled Myeloid Cell Leukemia 1(Mcl-1) homogeneous time-resolved fluorescence (HTRF) binding assay utilizing the BIM BH3 peptide (H2N—(C/Cy5Mal) WIAQELRRIGDEFN-OH) as the binding partner for Mcl-1.
This assay evaluated inhibition of the BH3 domain: Mcl-1 interaction by measuring the displacement of Cy5-labeled BIM BH3 peptide (H2N—(C/Cy5Mal) WIAQELRRIGDEFN-OH) in the HTRF assay format.
The following assay and stock buffers were prepared for use in the assay: (a) Stock buffer: 10 mM Tris-HCl, pH=7.5+150 mM NaCl, filtered, sterilized, and stored at 4° C.; and (b) 1X assay buffer, where the following ingredients were added fresh to stock buffer: 2 mM dithiothreitol (DTT), 0.0025% Tween-20, 0.1 mg/mL bovine serum albumin (BSA). The 1X Tb-Mcl-1+Cy5 Bim peptide solution was prepared by diluting the protein stock solution using the 1X assay buffer (b) to 25 pM Tb-Mcl-1 and 8 nM Cy5 Bim peptide.
Using the Acoustic ECHO, 100 nL of 100x test compound(s) were dispensed into individual wells of a white 384-well Perkin Elmer Proxiplate, for a final compound concentration of 1× and final DMSO concentration of 1%. Inhibitor control and neutral control (NC, 100 nL of 100% DMSO) were stamped into columns 23 and 24 of assay plate, respectively. Into each well of the plate was then dispensed 10 μL of the 1X Tb-Mcl-1+Cy5 Bim peptide solution. The plate was centrifuged with a cover plate at 1000 rpm for 1 minute, then incubated for 60 minutes at room temperature with plates covered.
The TR-FRET signal was read on an BMG PHERAStar FSX MicroPlate Reader at room temperature using the HTRF optic module (HTRF: excitation: 337 nm, light source: laser, emission A: 665 nm, emission B: 620 nm, integration start: 60 μs, integration time: […]).
The BMG PHERAStar FSX MicroPlate Reader was used to measure fluorescence intensity at two emission wavelengths—665 nm and 620 nm—and report relative fluorescence units (RFU) for both emissions, as well as a ratio of the emissions (665 nm/620 nm)*10,000. The RFU values were normalized to percent inhibition as follows:
% inhibition=(((NC−IC)−(compound−IC))/(NC−IC))*100
where IC (inhibitor control, low signal)= mean signal of 1X Tb-MCl-1+Cy5 Bim peptide+inhibitor control or 100% inhibition of Mcl-1; NC (neutral control, high signal)= mean signal 1X Tb-MCl-1+Cy5 Bim peptide with DMSO only or 0% inhibition An 11-point dose response curve was generated to determine IC50 values (using GenData) based on the following equation:
Y=Bottom+(Top−Bottom)/(1+10∧((log IC50−X)*HillSlope))
where Y=% inhibition in the presence of X inhibitor concentration; Top=100% inhibition derived from the IC (mean signal of Mcl-1+inhibitor control); Bottom=0% inhibition derived from the NC (mean signal of Mcl-1+DMSO); Hillslope=Hill coefficient; and IC50=concentration of compound with 50% inhibition in relation to top/neutral control (NC).
In this assay [L]=8 nM and Kd=10 nM

SMILES	AC50 [1] [nM]	Ki [2] [nM]	AC50 ([1]; Homo sapiens, MOLP-8, 2 h) [nM]
CC1CN(CCN(C)C(=O)[C@H]2/C(F)=C/C[C@H](C)[C@@H](C)S(=O)(=O)NC(=O)c3ccc4c(c3)N(C[C@@H]3CCCN32)C[C@@]2(CCCc3cc(Cl)ccc32)CO4)CC(C)O1 (mixture of isomers) [Compound 45]	113	0.113	–
C[C@@H]1[C@@H](C)C/C=C(\F)[C@H](C(=O)N(C)CCN2CCOCC2C(F)(F)F)N2CCC[C@H]2CN2C[C@@]3(CCCc4cc(Cl)ccc43)COc3ccc(cc32)C(=O)NS1(=O)=O (mixture of isomers) [Compound 50]	–	0.146	175
C[C@@H]1[C@@H](C)C/C=C(\F)[C@H](C(=O)N(C)CCC2CCOCC2)N2CCC[C@H]2CN2C[C@@]3(CCCc4cc(Cl)ccc43)COc3ccc(cc32)C(=O)NS1(=O)=O (single isomer, unassigned) [Compound 2]	–	0.089	89.2
C[C@@H]1COCCN1C(=O)[C@H]1/C(F)=C/C[C@H](C)[C@@H](C)S(=O)(=O)NC(=O)c2ccc3c(c2)N(C[C@@H]2CCCN21)C[C@@]1(CCCc2cc(Cl)ccc21)CO3 (single isomer, unassigned) [Compound 11]	–	0.032	163
C[C@@H]1[C@@H](C)C/C=C(\F)[C@H](C(=O)N2CCCC3(CCOC3)C2)N2CCC[C@H]2CN2C[C@@]3(CCCc4cc(Cl)ccc43)COc3ccc(cc32)C(=O)NS1(=O)=O (single isomer, unassigned) [Compound 14]	–	0.126	266
C[C@@H]1[C@@H](C)C/C=C(\F)[C@H](C(=O)N2CCCC3(CC3)C2)N2CCC[C@H]2CN2C[C@@]3(CCCc4cc(Cl)ccc43)COc3ccc(cc32)C(=O)NS1(=O)=O (single isomer, unassigned) [Compound 16]	–	0.446	446
C[C@@H]1[C@@H](C)C/C=C(\F)[C@H](C(=O)N2CCOC(C(F)(F)F)C2)N2CCC[C@H]2CN2C[C@@]3(CCCc4cc(Cl)ccc43)COc3ccc(cc32)C(=O)NS1(=O)=O (single isomer, unassigned) [Compound 20]	–	0.255	193
C[C@@H]1[C@@H](C)C/C=C(\F)[C@@H](C(=O)N(C)CCN2CCOCC2)N2CCC[C@H]2CN2C[C@@]3(CCCc4cc(Cl)ccc43)COc3ccc(cc32)C(=O)NS1(=O)=O (single isomer, unassigned) [Compound 33]	–	0.195	218
C[C@@H]1[C@@H](C)C/C=C(\F)[C@H](C(=O)N(C)CCN2CCOC(C(F)(F)F)C2)N2CCC[C@H]2CN2C[C@@]3(CCCc4cc(Cl)ccc43)COc3ccc(cc32)C(=O)NS1(=O)=O (single isomer, unassigned) [Compound 49]	–	0.287	366
COCCCN(C)C(=O)[C@H]1/C(F)=C/C[C@H](C)[C@@H](C)S(=O)(=O)NC(=O)c2ccc3c(c2)N(C[C@@H]2CCCN21)C[C@@]1(CCCc2cc(Cl)ccc21)CO3 (single isomer, unassigned) [Compound 51]	–	0.04	78.3
C[C@@H]1[C@@H](C)C/C=C(\F)[C@H](C(=O)N(C)CC2COCCO2)N2CCC[C@H]2CN2C[C@@]3(CCCc4cc(Cl)ccc43)COc3ccc(cc32)C(=O)NS1(=O)=O (single isomer, unassigned) [Compound 54]	–	0.042	76.4
C[C@@H]1[C@@H](C)C/C=C(\F)[C@H](C(=O)N(C)CC2COCCO2)N2CCC[C@H]2CN2C[C@@]3(CCCc4cc(Cl)ccc43)COc3ccc(cc32)C(=O)NS1(=O)=O (single isomer, unassigned) [Compound 55]	81.2	0.037	–
C[C@@H]1[C@@H](C)C/C=C(\F)[C@H](C(=O)N(C)CC2CCOC2)N2CCC[C@H]2CN2C[C@@]3(CCCc4cc(Cl)ccc43)COc3ccc(cc32)C(=O)NS1(=O)=O (single isomer, unassigned) [Compound 56]	–	0.038	89.4
C[C@@H]1[C@@H](C)C/C=C(\F)[C@H](C(=O)N(C)CC2CCOC2)N2CCC[C@H]2CN2C[C@@]3(CCCc4cc(Cl)ccc43)COc3ccc(cc32)C(=O)NS1(=O)=O (single isomer, unassigned) [Compound 57]	84.4	0.051	–
C[C@@H]1[C@@H](C)C/C=C(\F)[C@H](C(=O)N(C)C2CCCOC2)N2CCC[C@H]2CN2C[C@@]3(CCCc4cc(Cl)ccc43)COc3ccc(cc32)C(=O)NS1(=O)=O (single isomer, unassigned) [Compound 62]	–	0.058	134
C[C@@H]1[C@@H](C)C/C=C(\F)[C@H](C(=O)N(C)C2CCCOC2)N2CCC[C@H]2CN2C[C@@]3(CCCc4cc(Cl)ccc43)COc3ccc(cc32)C(=O)NS1(=O)=O (single isomer, unassigned) [Compound 63]	57.4	0.041	–
C[C@@H]1[C@@H](C)C/C=C(\F)[C@H](C(=O)N(C)CC2CCCOC2)N2CCC[C@H]2CN2C[C@@]3(CCCc4cc(Cl)ccc43)COc3ccc(cc32)C(=O)NS1(=O)=O (single isomer, unassigned) [Compound 64]	–	0.083	74.7
C[C@@H]1[C@@H](C)C/C=C(\F)[C@H](C(=O)N(C)CC2CCCOC2)N2CCC[C@H]2CN2C[C@@]3(CCCc4cc(Cl)ccc43)COc3ccc(cc32)C(=O)NS1(=O)=O (single isomer, unassigned) [Compound 65]	56.7	0.062	–
C[C@@H]1[C@@H](C)C/C=C(\F)[C@H](C(=O)N(C)C2CCOC2)N2CCC[C@H]2CN2C[C@@]3(CCCc4cc(Cl)ccc43)COc3ccc(cc32)C(=O)NS1(=O)=O (single isomer, unassigned) [Compound 68]	–	0.041	103
C[C@@H]1[C@@H](C)C/C=C(\F)[C@H](C(=O)N2CCO[C@@H](C)C2)N2CCC[C@H]2CN2C[C@@]3(CCCc4cc(Cl)ccc43)COc3ccc(cc32)C(=O)NS1(=O)=O [Compound 6]	–	–	84.3
